What was measured:
[1] = biological target: T1, PI3K delta (Homo sapiens, UniProt O00329); assay: PI3K delta kinase assay (Kinase-Glo luminescence); format: biochemical
T1 construct: for the full-length p110-d subunit are generated and fused by overlapping PCR; p85(iSH2) fusion partner (see partner chain) (N); His tag (C); made in house; host or cells: baculovirus; Tn5 (Trichoplusia ni) or TiniPro insect cells
In short: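 ATP depletion was measured by Kinase-Glo luminescence after a 60-minute room-temperature reaction containing 1 μM ATP, 10 μg/mL PI and 10 nM His-tagged p85(iSH2)-linker-p110δ (BV-1060). Buffer: Tris pH 7.5, 3 mM MgCl2, 50 mM NaCl, 0.05% CHAPS, 1 mM DTT. IC50 values came from four-parameter fits over eight concentrations.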

[2] = system: PKB Ser473 phosphorylation in Rat1-myr-HA-p110 alpha cells; assay: Reverse protein array assay, PKB Ser473 phosphorylation in Rat1-myr-p110 alpha cells; format: cell-based; conditions: 0.5 h, pAkt Ser473, 30 minutes compound incubation, read-out: p-PKB IC50
In short: (§1)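 Lysates were arrayed at four dilutions, and phospho-PKB Ser473 was quantified by relative fluorescence signal. They came from Rat1-myr-HA-p110 alpha, beta or delta cells exposed for 30 min at 37 °C to an 8-point compound series with 0.2% DMSO constant.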

[3] = system: PKB Ser473 phosphorylation in Rat1-myr-HA-p110 beta cells; assay: Reverse protein array assay, PKB Ser473 phosphorylation in Rat1-myr-p110 beta cells; format: cell-based; conditions: 0.5 h, pAkt Ser473, 30 minutes incubation, read-out: p-PKB IC50
In short: as §1

[4] = system: PKB Ser473 phosphorylation in Rat1-myr-HA-p110 delta cells; assay: Reverse protein array assay, PKB Ser473 phosphorylation in Rat1-myr-p110 delta cells; format: cell-based; conditions: read-out: p-PKB IC50
In short: as §1

T1 sequence (O00329 with tags, fused parts or gaps limits assumed): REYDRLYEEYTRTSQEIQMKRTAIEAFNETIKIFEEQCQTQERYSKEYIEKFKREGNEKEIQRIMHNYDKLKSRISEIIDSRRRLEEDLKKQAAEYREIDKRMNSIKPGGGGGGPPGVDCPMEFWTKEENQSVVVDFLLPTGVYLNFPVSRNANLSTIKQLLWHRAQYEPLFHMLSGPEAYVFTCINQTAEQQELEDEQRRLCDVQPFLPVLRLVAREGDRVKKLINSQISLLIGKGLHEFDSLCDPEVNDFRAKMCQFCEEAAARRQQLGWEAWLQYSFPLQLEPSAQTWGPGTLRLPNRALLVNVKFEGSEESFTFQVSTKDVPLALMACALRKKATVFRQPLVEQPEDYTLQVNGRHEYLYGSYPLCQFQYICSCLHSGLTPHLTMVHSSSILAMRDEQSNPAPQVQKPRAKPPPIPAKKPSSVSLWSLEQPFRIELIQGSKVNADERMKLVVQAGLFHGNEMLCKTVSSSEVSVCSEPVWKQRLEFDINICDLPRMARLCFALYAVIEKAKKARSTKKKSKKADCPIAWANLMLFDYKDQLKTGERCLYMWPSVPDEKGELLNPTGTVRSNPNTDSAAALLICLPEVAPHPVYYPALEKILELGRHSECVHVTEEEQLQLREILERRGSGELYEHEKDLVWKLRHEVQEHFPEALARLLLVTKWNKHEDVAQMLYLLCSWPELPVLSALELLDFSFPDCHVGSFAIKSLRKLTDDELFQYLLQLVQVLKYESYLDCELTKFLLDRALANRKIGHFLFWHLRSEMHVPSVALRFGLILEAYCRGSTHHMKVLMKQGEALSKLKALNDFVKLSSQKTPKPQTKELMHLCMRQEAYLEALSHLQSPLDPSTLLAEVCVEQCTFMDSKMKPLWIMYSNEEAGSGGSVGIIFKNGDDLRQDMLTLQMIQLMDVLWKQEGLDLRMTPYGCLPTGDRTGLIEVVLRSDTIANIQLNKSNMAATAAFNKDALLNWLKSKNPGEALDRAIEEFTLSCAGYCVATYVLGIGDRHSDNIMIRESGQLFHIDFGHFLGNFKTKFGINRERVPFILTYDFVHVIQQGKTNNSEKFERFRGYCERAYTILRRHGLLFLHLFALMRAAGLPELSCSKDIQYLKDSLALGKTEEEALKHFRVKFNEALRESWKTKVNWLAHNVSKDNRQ

Structure (SMILES) | IC50 [1] [nM] | IC50 [2] [nM] | IC50 [3] [nM] | IC50 [4] [nM]
Cc1nn(C(C)C)cc1-n1c(=O)n(C)c2cnc3ccc(-c4cnc5c(c4)COC(=O)N5C)cc3c21 [Example 170, 1-(1-Isopropyl-3-methyl-1H-pyrazol-4-yl)-3-methyl-8-(1-methyl-2-oxo-1,4-dihydro-2H-pyrido[2,3-d][1,3]oxazin-6-yl)-1,3-dihydro-imidazo[4,5-c]quinolin-2-one] | 23 | 268 | 370 | 607
Cc1nn(C)cc1-n1c(=O)n(C)c2cnc3ccc(-c4cncc(N(C)C5CCC5)c4)cc3c21 [Example 174, 8-[5-(Cyclobutyl-methyl-amino)-pyridin-3-yl]-1-(1,3-dimethyl-1H-pyrazol-4-yl)-3-methyl-1,3-dihydro-imidazo[4,5-c]quinolin-2-one] | 23 | 9 | 10 | 12
Cc1cc(-n2c(=O)n(C)c3cnc4ccc(-c5cnc(C)c(O)c5)cc4c32)n(C)n1 [Example 185.2, 1-(2,5-Dimethyl-2H-pyrazol-3-yl)-8-(5-hydroxy-6-methyl-pyridin-3-yl)-3-methyl-1,3-dihydro-imidazo[4,5-c]quinolin-2-one] | 6 | 38 | 88 | 158
[2H]C([2H])([2H])OCc1ncc(-c2ccc3ncc4c(c3c2)n(-c2cn(C)nc2C)c(=O)n4C)cc1OCC [Example 198, 1-(1,3-Dimethyl-1H-pyrazol-4-yl)-8-(5-ethoxy-6-trideuteromethoxymethyl-pyridin-3-yl)-3-methyl-1,3-dihydro-imidazo[4,5-c]quinolin-2-one] | 7 | 28 | 37 | 89
CCn1cc(-n2c(=O)n(C)c3cnc4ccc(-c5cncc(C(C)(C)C#N)c5)cc4c32)c(C)n1 [Example 220.2, 2-{5-[1-(1-Ethyl-3-methyl-1H-pyrazol-4-yl)-3-methyl-2-oxo-2,3-dihydro-1H-imidazo[4,5-c]quinolin-8-yl]-pyridin-3-yl}-2-methyl-propionitrile] | 7 | 19 | 32 | 45

The next lines start with the values.

IC50 [1] [nM] | IC50 [2] [nM] | IC50 [3] [nM] | IC50 [4] [nM] | Structure (SMILES)
26 | 136 | 220 | 240 | CCNC(=O)c1cc(-c2ccc3ncc4c(c3c2)n(-c2cn(C(C)C)nc2C)c(=O)n4C)cnc1N [Example 227, 2-Amino-N-ethyl-5-[1-(1-isopropyl-3-methyl-1H-pyrazol-4-yl)-3-methyl-2-oxo-2,3-dihydro-1H-imidazo[4,5-c]quinolin-8-yl]-nicotinamide]
19 | 17 | 59 | 119 | COc1ncc(-c2ccc3ncc4c(c3c2)n(-c2cc(C)nn2C)c(=O)n4C)c(OC)n1 [Example 234.4, 8-(2,4-Dimethoxy-pyrimidin-5-yl)-1-(2,5-dimethyl-2H-pyrazol-3-yl)-3-methyl-1,3-dihydro-imidazo[4,5-c]quinolin-2-one]
147 | < 5 | < 5 | 9 | CNc1ccc(-c2ccc3ncc4c(c3c2)n(-c2cn(C(C)C)nc2C)c(=S)n4C)cn1 [Example 241, 1-(1-isopropyl-3-methyl-1H-pyrazol-4-yl)-3-methyl-8-(6-(methylamino)pyridin-3-yl)-1H-imidazo[4,5-c]quinoline-2(3H)-thione]
26 | 30 | 26 | 116 | CCn1cc(-n2c(=O)n(C)c3cnc4ccc(-c5ccc(OC)c(OC)c5)nc4c32)c(C)n1 [Example 254, 8-(3,4-Dimethoxy-phenyl)-1-(1-ethyl-3-methyl-1H-pyrazol-4-yl)-3-methyl-1,3-dihydro-1,3,5,9-tetraaza-cyclopenta[a]naphthalen-2-one]
